Molecules are shown by their SMILES. Marks after values point to notes of the source that are not given here.

Data set [1] relates to elastin mRNA in human neonatal dermal fibroblasts (HNDF). Kind of data set: Elastin gene expression in human dermal fibroblasts, qPCR. The class given is cell-based. The conditions noted are these: 16 h. As to the method:
Human neonatal dermal fibroblasts (HNDF) were maintained in DMEM+10% FBS and were kept in a humidified 37° C. incubator with 5% CO2. Cells were plated at a density of 1×10^4 cells per well in a 24-well plate and incubated for 24 h, or until 100% confluency was reached. Subsequently, the media was removed and cells were washed with 500 μL PBS twice to remove detached cells or cell debris. HNDF were then treated for 16 h as follows: DMEM only, retinoic Acid 5 μM, retinoic acid 10 μM, Homocastasterone 5 μM and Homocastasterone 10 μM.
RNA was extracted from HNDF using Trizol reagent (Invitrogen) following manufacturer instructions. RNA was quantified spectrophotometrically by absorbance measurements at 260 nm and 280 nm using the NanoDrop system (NanoDrop Technologies, Wilmington, Del.). Quality of RNA was assessed by separation in gel-electrophoresis. To remove any traces of DNA contamination, RNA was then treated with Dnase I (Invitrogen) following the manufacturer guidelines. Complementary DNAs (cDNAs) were synthesized using 3.0 μg of RNA for each sample using Applied Biosystems High Capacity cDNA Reverse Transcription Kit following the manufacturer's protocol.
Quantitative RT-PCR (qPCR) amplifications were carried out in triplicate on an ABI 7300 Real-Time Detection System in a total volume of 25 μl containing 12.5 μl Brilliant SYBR® Green PCR master mix (Applied Biosystems), 5 μl of the 1:25 diluted cDNA, 0.5 μl of 6 μM gene-specific primers (IDT, Coralville, Iowa) and […] PCR-grade water. Primers were synthesized by Integrated DNA Technologies, Inc. (Coralville, Iowa, USA) as follows: β-actin, forward primer 5′-ACGTTGCTATCCAGGCTGTGCTAT-3′ (SEQ ID NO: 1), reverse primer 5′-CTCGGTGAGGATCTTCATGAGGTAGT-3′ (SEQ ID NO: 2); elastin, forward primer 5′-AAGCAGCAGCAAAGTTCGGT-3′ (SEQ ID NO: 3), and reverse primer 5′-ACTAAGCCTGCAGCAGCTCCATA-3′ (SEQ ID NO: 4). qPCR amplifications were performed on the 7300 Real Time PCR System (A&B Applied Biosystems) using 1 cycle at 50° C. for 2 min, 1 cycle at 95° C. for 10 min, followed by 40 cycles of 15 s at 95° C. and 1 min at 60° C. The dissociation curve was completed with one cycle of 15 s at 95° C., 1 min at 60° C., and 15 s of 95° C. No RT (NRT) and no template control (NTC) were included in each experiment as quality control steps. Target mRNA expression was analyzed using the ΔΔCt method and normalized with respect to the expression of the β-actin housekeeping gene. Cells treated with DMEM only (negative control) served as the calibrator sample in this study, and a value of 1.0 was assigned to the target gene expression of the calibrator sample. All samples were run in triplicate. A p value of 0.001 was considered to be significant.

The test system of data set [2] is fully differentiated L6 rat skeletal myotubes. Nature of the data set: MTT cell viability in L6 myotubes. The class given is cell-based. The conditions noted are these: up to 25 μM. As to the method:
In various aspects, cell viability is measured and the effects of doses of compound and test reagents are tested in cell lines. In some aspects, cell viability was measured by the MTT (3-(4,5-Dimethylthiazol-2-yl)-2,5-diphenyltetrazolium bromide) assay in triplicate (Mosmann et al., J. Immunol. Methods 65:55-63, 1983) and quantified spectrophotometrically at 550 nm using a microplate reader (Molecular Devices, Sunnyvale, Calif.).

The target in data set [3] is T1, rat nuclear androgen receptor (Rattus norvegicus, UniProt P15207).
T1 construct: MDS Pharma Services (Taiwan), the contract laboratory that ran the assay
T1 sequence (P15207 1-902): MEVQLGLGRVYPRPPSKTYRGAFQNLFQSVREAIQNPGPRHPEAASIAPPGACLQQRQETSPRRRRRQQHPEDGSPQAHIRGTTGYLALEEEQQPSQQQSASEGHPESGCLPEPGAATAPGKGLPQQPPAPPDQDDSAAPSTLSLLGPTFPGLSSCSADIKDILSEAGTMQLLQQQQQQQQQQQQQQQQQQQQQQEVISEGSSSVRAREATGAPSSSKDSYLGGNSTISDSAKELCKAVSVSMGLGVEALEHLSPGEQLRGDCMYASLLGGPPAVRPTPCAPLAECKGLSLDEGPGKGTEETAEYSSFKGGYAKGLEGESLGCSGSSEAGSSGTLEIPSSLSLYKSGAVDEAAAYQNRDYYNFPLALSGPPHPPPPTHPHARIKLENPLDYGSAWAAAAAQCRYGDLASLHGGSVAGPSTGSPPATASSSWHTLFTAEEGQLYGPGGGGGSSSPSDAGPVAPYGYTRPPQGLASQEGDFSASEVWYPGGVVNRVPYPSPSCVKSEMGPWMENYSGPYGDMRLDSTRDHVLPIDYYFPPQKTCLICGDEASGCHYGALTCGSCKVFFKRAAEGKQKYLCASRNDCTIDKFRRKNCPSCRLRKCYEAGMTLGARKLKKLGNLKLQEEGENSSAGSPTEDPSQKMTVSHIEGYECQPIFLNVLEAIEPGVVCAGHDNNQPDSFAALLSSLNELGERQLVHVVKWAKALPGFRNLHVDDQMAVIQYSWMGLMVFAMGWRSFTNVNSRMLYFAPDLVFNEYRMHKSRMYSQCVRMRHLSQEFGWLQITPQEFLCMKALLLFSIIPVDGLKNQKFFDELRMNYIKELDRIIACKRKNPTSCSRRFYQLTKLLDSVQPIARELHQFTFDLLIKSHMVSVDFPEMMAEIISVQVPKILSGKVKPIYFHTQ
Nature of the data set: Rat androgen receptor binding, [3H]-mibolerone displacement. The conditions noted are these: 0.01 μM up to 10 μM. How it is done:
Rat androgen receptor binding assays were performed by MDS Pharma Services (Taiwan) as described elsewhere (Chang et al., J. Steroid Biochem. 27:123-131, 1987), incorporated herein by reference.

Regarding `CC[C@@H](C(C)C)[C@H](O)[C@@H](O)[C@@H](C)[C@H]1CC[C@H]2[C@@H]3CC(=O)[C@H]4C[C@H](O)[C@H](O)C[C@]4(C)[C@H]3CC[C@]12C` [Compound 2, (22S,23S,24S)-2α,3α, 22,23-tetrahydroxy-24-ethyl-5α-cholestan-6-one], the “Increase in elastin mRNA levels (-fold over control)” value was 1.7 fold in data set [1] (5 μM); 3.2** fold in data set [1] (10 μM, listed as Homocastasterone); “up to 3.23±0.4 fold” in data set [1] (10 μM, listed as homocastasterone).

As to `CC[C@@H](C(C)C)[C@H](O)[C@@H](O)[C@@H](C)[C@H]1CC[C@H]2[C@@H]3COC(=O)[C@H]4C[C@H](O)[C@H](O)C[C@]4(C)[C@H]3CC[C@]12C` [Compound 1, (22S,23S,24S)-2α,3α,22,23-tetrahydroxy-24 ethyl-β-homo-7-oxo-5α-cholestane-6-one], the “toxicity to L6 myotubes (MTT assay and cytological observations)” value in data set [2] is “no toxicity”. Also, the “binding to androgen receptor” value in data set [3] was “no significant binding”.

(Values after patent US20140128357A1, “METHODS OF PRODUCING AND USING BRASSINOSTEROIDS TO PROMOTE GROWTH, REPAIR AND MAINTENANCE OF SKELETAL MUSCLE AND SKIN” (Rutgers University, priority 2010, published 2014).)
